Results on 9 molecules are retold here after patent US3965139A, “2-Chloro-N-(cyanomethyl)acetanilides” (Diamond Shamrock Corporation, priority 1974, dated 1976).

Data set [1] deals with grass species. In words: Greenhouse Preemergence Herbicide Test, grass species. The data set is classed as in vivo. To be noted: two weeks after treatment. The protocol:
To illustrate the preemergence herbicidal efficiency of the N-(cyanomethyl)acetanilides of this invention, test formulations are prepared of representative compounds by mixing 20 ml of an acetone solution containing 0.125 g of the test compound with 20 ml of water containing 0.01 g of Triton X-155 surfactant. The resultant formulations contain 3125 ppm of test compound, 50% by volume of acetone and 0.025% by weight of surfactant. Appropriate lower concentrations are obtained by diluting this formulation with surfactant-acetone solution so that the concentration of adjuvants is maintained at the original levels.
Seeds of three broadleaf and three grass species are planted in soil contained in 10 × 8 × 3 inch aluminum pans filled with 1.5 inches of composted soil. The broadleaf species are pigweed (Amaranthus retroflexus), a velvetleaf (Abutilon theophrasti), and morningglory (Ipomea coccinea); the grasses are red millet (Panicum milliacem), greenfoxtail (Setaria viridis) and Japanese millet (Echinochloa frumentacea).
The pans are then sprayed so that the soil surface is uniformly covered with dilutions of the stock formulation providing dosage rates of the test compounds corresponding to 8, 4, 2, 1, 0.5, and 0.25 lb/A. Two weeks after treatment, percent control (plant kill) at each dosage rate is estimated. The lowest concentration of each compound (lb/A) found to provide 50% or greater control of the grass weeds is as follows: […]

The next data set has as its system Giant Foxtail. The data set can be described thus: Field Preemergence Test, light sandy soil. The data set is classed as in vivo. To be noted: 3-4 weeks after planting. An excerpt: (§1) Test plots of fertilized, light sandy soil containing 0.7% organic matter are sprayed uniformly with aqueous suspensions prepared from an emulsifiable concentrate containing 12%, by weight, of 2-chloro-N-cyanomethyl-2',6'-diethylacetanilide (the product of Example 1) diluted to provide dosage rates of the test compound corresponding to 2, 1, 0.5, and 0.25 pound per acre (lb/A). The plots are then sown with seeds of the following crop plants: sweet corn, cotton (Coker 413), and soybeans, var. Davis. Seeds of the following weed plants are planted: redroot pigweed, prickly sida, and common lambsquarter (broadleaf species); goosegrass and giant foxtail (grass species).
(§2) Three to four weeks after planting, percent control (plant kill) of the test plants is estimated, from a rating of 0 which denotes no injury to the plant up to 100 which denotes complete destruction. The % weed control exerted by 2-chloro-N-cyanomethyl-2',6'-diethylacetanilide is as follows: […]

The subject of another data set is Goosegrass. In words: Field Preemergence Test, light sandy soil. To be noted: 3-4 weeks after planting. It is filed as in vivo.
Text: as §1, §2

In the next data set the test system is Prickly Sida. The data set can be described thus: Field Preemergence Test, light sandy soil. To be noted: 3-4 weeks after planting. It is filed as in vivo.
Text: as §1, §2

The test system of the next data set is Redroot Pigweed. In words: Field Preemergence Test, light sandy soil. The data set is classed as in vivo. To be noted: 3-4 weeks after planting.
Text: as §1, §2

The test system of another data set is Lambsquarter. In words: Field Preemergence Test, light sandy soil. The data set is classed as in vivo, common lambsquarter. To be noted: 3-4 weeks after planting.
Text: as §1, §2

For data set [2], the system named is Corn. In words: Field Preemergence Test, phytotoxic effects on crop. The data set is classed as in vivo, sweet corn. To be noted: light sandy soil; for % Crop Kill, Corn: 3-4 weeks after planting.
Text: as §1
(§3) Three to four weeks after planting, percent control (plant kill) of the test plants is estimated, from a rating of 0 which denotes no injury to the plant up to 100 which denotes complete destruction. The % weed control exerted by 2-chloro-N-cyanomethyl-2',6'-diethylacetanilide is as follows:
(§4) Phytotoxic effects observed on the crop species is estimated with results as follows: […]

The test system of a further data set is Cotton. The description is as above. It is filed as in vivo, cotton (Coker 413). To be noted: light sandy soil; for % Crop Kill, Cotton: 3-4 weeks after planting.
Text: as §1, §3, §4

For data set [3], the system named is Soybeans. The description is as above. To be noted: light sandy soil; for % Crop Kill, Soybeans: 3-4 weeks after planting. It is filed as in vivo, var. Davis.
Text: as §1, §3, §4

In data set [4] the test system is Corn. The data set can be described thus: Preemergence test in loam-type heavier soil, crop. To be noted: for % Control of Plant Growth, Corn: about three weeks after planting, loam-type heavier soil. It is filed as in vivo.
In data set [5] the test system is Soybeans. In words: Preemergence test in loam-type heavier soil, crop. To be noted: for % Control of Plant Growth, Soybeans: about three weeks after planting, loam-type heavier soil. The data set is classed as in vivo. An excerpt:
(§5) This example illustrates the performance of 2-chloro-N-cyanomethyl-2',6'-diethylacetanilide in a different type soil than employed in the previous example. For this test, test plots of a loam-type, heavier soil containing 5.5% organic matter are sprayed uniformly with formulations of the test compound providing dosage rates of 4, 2, and 1 pound per acre (lb/A). The plots are then sown to cotton and soybeans and with seeds of the broadleaf, redroot pigweed, and the grasses, Johnson grass and yellow foxtail, as indicator weed plants.
(§6) Approximately three weeks after planting, the test plots are examined and percent control of plant growth is rated from 0% to 100% as previously described.

A further data set concerns Pigweed. The data set can be described thus: Preemergence test in loam-type heavier soil, weed. The data set is classed as in vivo, redroot pigweed. To be noted: about three weeks after planting.
Text: as §5, §6

The subject of a further data set is Johnsongrass. In words: Preemergence test in loam-type heavier soil, weed. The data set is classed as in vivo, Johnson grass. To be noted: about three weeks after planting.
Text: as §5, §6

The next data set concerns Yellow Foxtail. The data set can be described thus: Preemergence test in loam-type heavier soil, weed. The data set is classed as in vivo. To be noted: about three weeks after planting.
Text: as §5, §6

For a further data set, the system named is grassy-type weeds. In words: Field Preemergence Test, light sandy soil, grasses overall. It is filed as in vivo, goosegrass and giant foxtail.
Text: as §1, §2

For data set [6], the system named is broadleaf species. In words: Field Preemergence Test, light sandy soil, broadleaf species overall. The data set is classed as in vivo, redroot pigweed, prickly sida, common lambsquarter.
Text: as §1, §2

In data set [7] the test system is grass species. The data set can be described thus: Preemergence test in loam-type heavier soil, grasses overall. The data set is classed as in vivo, Johnson grass and yellow foxtail. To be noted: 1-2 lb/A; heavy soil.
Text: as §5, §6

Data set [8] concerns broadleaf species. In words: Preemergence test in loam-type heavier soil, broadleaf species. It is filed as in vivo, redroot pigweed. To be noted: 1-2 lb/A; heavy soil.
Text: as §5, §6

Take `Cc1cccc(N(CC#N)C(=O)CCl)c1` [Example 8, 2-chloro-N-cyanomethyl-3'-methylacetanilide]: the “Minimum Dosage Providing at Least 50% Preemergence Control of Grass Species” value with grass species [1] was determined as 0.50 lb/A.
Regarding `Cc1cccc(C)c1N(CC#N)C(=O)CCl` [Example 10, 2-chloro-N-cyanomethyl-2',6'-dimethylacetanilide], the “Minimum Dosage Providing at Least 50% Preemergence Control of Grass Species” value in the data set on grass species [1] was 0.25 lb/A.
As for `N#CCN(C(=O)CCl)c1ccccc1Br` [Example 15, 2'-bromo-2-chloro-N-(cyanomethyl)acetanilide], the “Minimum Dosage Providing at Least 50% Preemergence Control of Grass Species” value with grass species [1] amounted to 1.00 lb/A.
Still for that read-out and setting: the same measure for `N#CCN(C(=O)CCl)c1ccccc1Cl` [Example 9, 2,2'-dichloro-N-(cyanomethyl)acetanilide]: 0.50 lb/A.
The same measure, in the same setting: the same measure for `CC(C)c1cccc(C(C)C)c1N(CC#N)C(=O)CCl` [Example 12, 2-chloro-N-cyanomethyl-2',6'-diisopropylacetanilide]: 0.50 lb/A.
For the molecule `CCc1cccc(CC)c1N(CC#N)C(=O)CCl` [Example 1, 2-chloro-N-cyanomethyl-2',6'-diethylacetanilide], the “Minimum Dosage Providing at Least 50% Preemergence Control of Grass Species” value in the data set with grass species [1] is 0.50 lb/A. The “% Weed Control, Giant Foxtail” value in the data set with Giant Foxtail (0.25 lb/A) amounted to 0%; in the data set on Giant Foxtail (0.5 lb/A) it was 27%; in the data set on Giant Foxtail (1 lb/A), 65%; in the data set on Giant Foxtail (2 lb/A) it was 82%. In addition, the “% Weed Control, Goosegrass” value was 63% with Goosegrass (0.25 lb/A), 88% in the data set on Goosegrass (0.5 lb/A), 95% in the data set with Goosegrass (1 lb/A) and 99% with Goosegrass (2 lb/A). In addition, the “% Weed Control, Prickly Sida” value in the data set on Prickly Sida (0.25 lb/A) amounted to 0%; in the data set with Prickly Sida (0.5 lb/A), 0%; with Prickly Sida (1 lb/A), 12%; in the data set with Prickly Sida (2 lb/A), 40%. The “% Weed Control, Redroot Pigweed” value with Redroot Pigweed (0.25 lb/A) came out at 0%; in the data set on Redroot Pigweed (0.5 lb/A), 33%; in the data set on Redroot Pigweed (1 lb/A), 55%; with Redroot Pigweed (2 lb/A), 90%. For the same molecule, the “% Weed Control, Lambsquarter” value with Lambsquarter (0.25 lb/A) is 0%; in the data set with Lambsquarter (0.5 lb/A), 20%; with Lambsquarter (1 lb/A), 60%; in the data set with Lambsquarter (2 lb/A) it was 88%. Further, the “% Crop Kill, Corn” value in the data set with Corn [2] (1 lb/A) and in the data set on Corn [2] (2 lb/A) was 0% each time. For the same molecule, in the data set on Corn [2] (2 lb/A), the tolerance of corn result is reported as “tolerant”. In addition, the “% Crop Kill, Cotton” value in the data set with Cotton (1 lb/A) amounted to 0%; with Cotton (2 lb/A) it was 3%. Besides, the “phytotoxicity effects on cotton” value with Cotton (2 lb/A) is “minimal phytotoxicity effects”. Besides, the “% Crop Kill, Soybeans” value in the data set on Soybeans [3] (1 lb/A) and in the data set with Soybeans [3] (2 lb/A) was 0% throughout. For the same molecule, in the data set on Soybeans [3] (2 lb/A), the tolerance of soybeans entry is “tolerant”. The “injury to corn stand” value in the data set on Corn [4] (1-2 lb/A, heavy soil) is given as “noninjurious”. In addition, the “% Control of Plant Growth, Corn” value stood at 0% with Corn [4] (1 lb/A), 0% with Corn [4] (2 lb/A) and 10% in the data set on Corn [4] (4 lb/A). Besides, the “injury to soybean stand” value with Soybeans [5] (1-2 lb/A, heavy soil) is “noninjurious”. Besides, the “% Control of Plant Growth, Soybeans” value turned out to be 0% in the data set with Soybeans [5] (1 lb/A), 0% in the data set on Soybeans [5] (2 lb/A) and 5% in the data set with Soybeans [5] (4 lb/A). Moreover, the “% Control of Plant Growth, Pigweed” value is listed as 0% in the data set with Pigweed (1 lb/A), 0% in the data set on Pigweed (2 lb/A) and 40% with Pigweed (4 lb/A). Moreover, the “% Control of Plant Growth, Johnsongrass” value with Johnsongrass (1 lb/A) came to 60%; in the data set on Johnsongrass (2 lb/A), 80%; with Johnsongrass (4 lb/A), 80%. Further, the results for the “% Control of Plant Growth, Yellow Foxtail” value with Yellow Foxtail (1 lb/A), in the data set with Yellow Foxtail (2 lb/A) and with Yellow Foxtail (4 lb/A) were 90%, 95% and 95%, respectively. Moreover, in the data set with grassy-type weeds, the “control of grassy-type weeds” value is on record as “good control”. The “broadleaf weed control in a light, sandy soil” value in the data set with broadleaf species [6] (1-2 lb/A) is given as “good broadleaf weed control”. Also, in the data set with broadleaf species [6] (2 lb/A), the “herbicidal activity against two of the broadleaf species” value is given as “significant herbicidal activity”. Besides, the “selectivity for controlling the grass species” value in the data set with grass species [7] is recorded as “selective for controlling the grass species”. The “activity for controlling the broadleaf species” value with broadleaf species [8] was “no activity”.
For the molecule `CC(C)c1ccccc1N(CC#N)C(=O)CCl` [Example 11, 2-chloro-N-cyanomethyl-2'-isopropylacetanilide], the “Minimum Dosage Providing at Least 50% Preemergence Control of Grass Species” value in the data set on grass species [1] was found to be 1.00 lb/A.
Turning to `COc1ccccc1N(CC#N)C(=O)CCl` [Example 13, 2-chloro-N-cyanomethyl-2'-methoxyacetanilide], the “Minimum Dosage Providing at Least 50% Preemergence Control of Grass Species” value in the data set on grass species [1] is listed as 0.50 lb/A.
With `CCc1ccccc1N(CC#N)C(=O)CCl` [Example 14, 2-chloro-N-cyanomethyl-2'-ethylacetanilide], the “Minimum Dosage Providing at Least 50% Preemergence Control of Grass Species” value with grass species [1] was found to be 0.50 lb/A.
